Data on 17 molecules can be found in PubChem BioAssay (NCI).

What all share (assay): DTP human tumour cell line panel, 48 h
Experiment [1] concerns SK-MEL-28 melanoma.
In experiment [2] the test system is SF-268 CNS.
Experiment [3] concerns OVCAR-4 ovarian.
Experiment [4] has as its system UACC-257 melanoma.
Experiment [5] relates to MDA-MB-435.
In experiment [6] the test system is LOX IMVI melanoma.
In experiment [7] the test system is TK-10 renal.
Experiment [8] deals with SW-620 colon.
Experiment [9] concerns PC-3 prostate.
Experiment [10] deals with NCI-H522 lung.

“And” between values parts separate entries of the source, which are not always exact repeats. Identical values can stand only once.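 Results reflect a 48-hour exposure of cells in 96-well plates to compound at five concentrations. GI50: concentration for 50% inhibition of growth. TGI is the concentration that stops growth completely.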 Where only a bound is given, the exact number is not on record here.

As usually defined, the GI50 is the concentration giving 50% growth inhibition. Usually TGI stands for the concentration giving total growth inhibition. Read a low TGI as greater sensitivity of the cells. For the molecule `COc1ccc(-c2[nH]nc(N)c2-c2cc(OC)c3c(c2)OCO3)cc1`, the GI50 in experiment [1] was 6.3 µM; in experiment [2] it was 4.74 µM; in [3], 12.9 µM; in experiment [4], 5.77 µM; in [5], 0.559 µM; in experiment [6], 4.86 µM. The values for the GI50 in [7], in experiment [8] and in experiment [9] were 8.42 µM, 3 µM and 14.3 µM, respectively. The TGI in experiment [1] was above 100 µM; in experiment [2], above 100 µM; in experiment [3], above 100 µM; in experiment [4] it was above 100 µM; in experiment [5], 2.54 µM; in [6] it was above 100 µM. The total growth inhibition concentration (TGI) was 60.1 µM in experiment [7], above 100 µM in experiment [8] and above 100 µM in experiment [9].

As to `CC1CCC(=O)C(C(O)CC2CC(=O)N(c3ccccc3)C(=O)C2)C1` (centres undefined), the total growth inhibition concentration (TGI) in [1], in experiment [10], in experiment [2], in experiment [3], in experiment [4] and in experiment [6] was above 100 µM throughout. Moreover, the TGI in [7] and in [8] was above 100 µM each time.

For the molecule `CCN(CC)CC(=O)NC1c2ccccc2Oc2c(C)cccc21` (centres undefined), the TGI in [1], in [2], in [3], in experiment [4], in experiment [6] and in [7] was above 100 µM throughout. Moreover, in experiment [8], the TGI was above 100 µM.

On to `CN(C)CCn1cnc2ncccc2c1=O`, for which the total growth inhibition concentration (TGI) in experiment [1], in experiment [10], in experiment [2], in experiment [3], in experiment [6] and in experiment [7] was above 100 µM throughout. In experiment [8], the TGI is above 100 µM.

As to `CC1=C(C(=O)NCc2ccccc2)C(c2ccccc2C)C(C(=O)NCc2ccccc2)=C(C)N1`, the TGI in experiment [1] was above 67.3 µM; in [10], 66.2 µM; in experiment [2], 57.6 µM; in [3], above 63.7 µM; in experiment [4], above 76.4 µM; in experiment [6], 35.7 µM. Besides, the figures for the TGI in experiment [7] and in [8] were 99.6 µM and above 100 µM, respectively.

In the case of `O=C(CO[N+](=O)[O-])OC/C=C/c1ccccc1`, the TGI in [10], in experiment [2], in experiment [4], in [6], in [7] and in experiment [8] was above 100 µM in each case.

Turning to `Clc1ccc(OCc2nnc3n2N=C(c2ccc(Br)cc2)CS3)cc1`, the TGI in experiment [1] was above 100 µM; in experiment [4], 83.3 µM; in experiment [6], 46 µM; in [7], 35.6 µM; in experiment [8], above 100 µM.

As to `COc1ccc(S(=O)(=O)N[C@H](C(=O)O)c2ccccc2)cc1`, the total growth inhibition concentration (TGI) in [1], in experiment [2], in [3], in [4], in experiment [6] and in [7] was above 100 µM each time. The TGI in [8] is above 100 µM.

Consider `CCCCCCCCCCCCCCCCc1c(C(=O)OC)nc(NN)[nH]c1=O`, for which the TGI in experiment [1], in [10], in experiment [2], in experiment [3], in [4] and in experiment [6] was above 50 µM throughout. The TGI in experiment [7] and in experiment [8] was above 50 µM each time.

For `COc1cccc2nc3ccccc3nc12`, the TGI in experiment [1], in experiment [2], in experiment [4], in experiment [5], in experiment [6] and in experiment [7] was above 100 µM each time. Further, the TGI in [8] and in experiment [9] was above 100 µM in each case.

Turning to `COc1cc(-c2ccc(NC(=O)SCCC(=O)O)cc2OC)ccc1NC(=O)SCCC(=O)O`, the TGI in experiment [1], in experiment [10], in [2], in [3], in [4] and in experiment [6] was above 100 µM in each case. Moreover, the TGI in experiment [7] and in [8] was above 100 µM each time.

In the case of `COC1[C@H](NC(=O)OC(C)(C)C)C(=O)N1Cc1ccccc1` (some centres undefined), the TGI in [1], in [2], in [3], in experiment [4], in experiment [6] and in [7] was above 100 µM throughout. Besides, in experiment [8], the TGI is above 100 µM.

Turning to `CCCCCCCCCCSC(=O)NC`, the concentration for total growth inhibition (TGI) in experiment [1] is 68.4 µM; in experiment [10], 54.6 µM; in [2], above 100 µM; in [3], above 100 µM; in [4], 85 µM; in experiment [6], above 100 µM. In addition, the TGI in [7] and in experiment [8] was above 100 µM throughout.

`CCOc1ccc(OCC)c([P+](c2ccccc2)(c2ccccc2)c2ccccc2)c1`: the TGI in experiment [1] was 16.8 µM; in experiment [2] it was 24.4 µM; in [3], 29 µM; in experiment [4], 3.8 µM; in experiment [6], 3.1 µM; in [7], 12 µM. Further, in [8], the TGI stood at 13.1 µM.

On to `CCOC(=O)C(NO)C(Sc1ccccc1)c1ccc(OC)cc1` (centres undefined), for which the TGI in [1], in experiment [10], in experiment [2], in experiment [4], in experiment [6] and in experiment [7] was above 100 µM each time. In experiment [8], this molecule returned a TGI above 100 µM.

On to `C[C@H](CS)C(=O)N1c2ccccc2C[C@H]1C(=O)O`, for which the TGI in experiment [1], in experiment [10], in experiment [2], in experiment [3], in experiment [4] and in experiment [7] was above 100 µM throughout. The TGI in experiment [8] and in experiment [9] was above 100 µM throughout.

With `CC(=O)OC(C)(C)/C=C/C(=O)[C@](C)(O)[C@H]1[C@H](O)C[C@@]2(C)[C@@H]3CC=C4[C@@H](C=C(O)C(=O)C4(C)C)[C@]3(C)C(=O)C[C@]12C`, the TGI in experiment [10] is 196 nM [middle of 4 runs]; in [5], 0.194 µM; in [7] it was 0.15 µM and 0.204 µM; in [8], 7.04 µM and 1.26 µM and 3.48 µM; in [9], 1.48 µM. Moreover, the GI50 in experiment [5] is 0.0404 µM; in experiment [9], 0.0408 µM.
